Where two headings read alike, the source gives them in different places.

Experiment [1] has as its system pERK in AGS cells. As to the kind of experiment: ERK phosphorylation cell assay, AGS. The format is cell-based. The note with it: 3 hours compound incubation, read-out: pERK AGS_IC50. As for the experimental part: (§1) • Day 1: AGS cells were seeded into a 384-well cell culture plate and incubated overnight at 37° C. with 5% CO2 in a cell culture incubator. • Day 2: Compounds were added to the plate using an Echo550 liquid handler, followed by incubation at 37° C. with 5% CO2 in a cell culture incubator for 3 hours. Subsequently, the cells were fixed with paraformaldehyde, permeabilized with methanol, and blocked with blocking buffer. A primary antibody mixture (rabbit anti-pERK, mouse anti-GAPDH) was added, and the plate was incubated overnight at 4° C. • Day 3: The primary antibodies were removed, and a secondary antibody mixture (goat anti-rabbit 800CW, goat anti-mouse 680RD) was added. The plate was incubated at room temperature in the dark. After three washes with PBST, the plate was inverted and centrifuged for 1 minute. Fluorescence signal values were read using an Odyssey CLx imaging system.
(§2) [formula] • Negative control: DMSO • Positive control: 10 μM Reference • Fitted using XLFit 5.0 with the following parameters:
(§3) [formula] • X: Log of compound concentration • Y: Mean relative expression levels of p-ERK across replicates

Experiment [2] relates to pERK in AsPC-1 cells. Put plainly: ERK phosphorylation cell assay, AsPC-1. Format: cell-based. The note with it: read-out: pERK AsPC-1_IC50. As for the experimental part: [Worded in the source for another cell line; this cell line is reported under the same test.] as §1, §2, §3
Where [3] appears, read: Homo sapiens, ASPC1, AsPC-1 cells.

On to `C=C1CN2CCCC2(COc2nc(N3CCC[C@@](C)(O)C3)c3cc4c(c(F)c3n2)-c2cc(O)cc3ccc(F)c(c23)CC/C=C\CN4)C1` (stereo partly drawn) [Example 32, (Z)-3,15-difluoro-11-((R)-3-hydroxy-3-methylpiperidin-1-yl)-13-((2-methylenetetrahydro-1H-pyrazin-7a(5H)-yl)methoxy)-4,5,8,9-tetrahydronaphtho[1′,8′:4,5,6][1]azacycloondecano[2,3-g]quinazolin-17-ol], for which the IC50 in experiment [1] (Homo sapiens, AGS, 3 h) is 0.652 µM; in experiment [2] (setting [3]) it was 1.14 µM. In the same order, the values of `C[C@@]1(O)CCCN(c2nc(OCC34CCCN3CC(=C(F)F)C4)nc3c(F)c4c(cc23)NCCCCCc2c(F)ccc3cc(O)cc-4c23)C1` (stereo partly shown) [Example 29] are 5.42 µM and 4.53 µM.

Regarding `C=C1CN2CC(F)(F)CC2(COc2nc(N3CCC[C@@](C)(O)C3)c3cc4c(c(F)c3n2)-c2cc(O)cc3ccc(F)c(c23)CCCCCN4)C1` (single isomer, unassigned) [Example 57A], the IC50 in experiment [1] was 1.14 µM; in experiment [2] (setting [3]), > 10 µM. On to `CCN1CCCc2c(F)ccc3cc(O)cc(c23)-c2c(cc3c(N4CC5CCC(C4)N5)nc(OC[C@@]45CCCN4C[C@H](F)C5)nc3c2F)C1=O` [Example 13, 10-((1R,5S)-3,8-diazabicyclo[3.2.1]oct-3-yl)-7-ethyl-3,14-difluoro-12-(((2R,7aS)-2-fluorotetrahydro-1H-pyrazin-7a(5H)-yl)methoxy)-16-hydroxy-4,5,6,7-tetrahydro-8H-naphtho[1′,8′:5,6,7]acrylo[3,4-g]quinazolin-8-one], for which the IC50 in experiment [1] (Homo sapiens, AGS, 3 h) is 3.95 µM; in experiment [2] (setting [3]), 8.04 µM.

In the case of `C=C1CN2CC(F)(F)CC2(COc2nc(N3CCC[C@@](C)(O)C3)c3cc4c(c(F)c3n2)-c2cc(O)cc3ccc(F)c(c23)CCCCCN4)C1` (single isomer, unassigned) [Example 57B], the IC50 in experiment [1] and in experiment [2] (AsPC-1 cells) was > 10 µM each time.

On to `COC12CCC(COc3nc(N4CCC[C@@](C)(O)C4)c4cc5c(c(F)c4n3)-c3cc(O)cc4ccc(F)c(c34)CCCCCN5)(CC1)CC2` [Example 20A], for which the IC50 in experiment [1] (Homo sapiens, AGS, 3 h) was > 10 µM; in experiment [2] (setting [3]) it was > 10 µM. Turning to `C[C@@]1(O)CCCN(c2nc(OCC34CCC(CC3)CO4)nc3c(F)c4c(cc23)NCCCCCc2c(F)ccc3cc(O)cc-4c23)C1` [Example 18A], the IC50 is > 10 µM in experiment [1] (Homo sapiens, AGS, 3 h) and > 10 µM in experiment [2] (setting [3]). For the molecule `O=C1CCCc2c(F)ccc3cc(O)cc(c23)-c2c(cc3c(N4CC5CCC(C4)N5)nc(OCC(F)(F)F)nc3c2F)N1` [Example 15, 10-((1R,5S)-3,8-diazabicyclo[3.2.1]octan-3-yl)-3,14-difluoro-16-hydroxy-12-(2,2,2-trifluoroethoxy)-5,6-dihydro-4H-naphtho[1′,8′:4,5,6]azacycloundecino[2,3-g]quinazolin-7(8H)-one], in experiment [1] (Homo sapiens, AGS, 3 h), the IC50 is > 10 µM. In the case of `O=C1NCCCc2c(F)ccc3cc(O)cc(c23)-c2c1cc1c(N3CC4CCC(C3)N4)nc(OC[C@@]34CCCN3C[C@H](F)C4)nc1c2F` [Example 12, 10-((1R,5S)-3,8-diazabicyclo[3.2.1]oct-3-yl)-3,14-difluoro-12-(((2R,7aS)-2-fluorotetrahydro-1H-pyrazin-7a(5H)-yl)methoxy)-16-hydroxy-4,5,6,7-tetrahydro-8H-naphtho[1′,8′:5,6,7]acredo [3,4-g]quinazolin-8-one], the IC50 in experiment [1] (Homo sapiens, AGS, 3 h) is 5.43 µM; in experiment [2] (setting [3]), > 10 µM. Regarding `O=C1CCCCCc2c(F)ccc3cc(O)cc(c23)-c2c(cc3c(N4CC5CCC(C4)N5)nc(OC[C@@]45CCCN4C[C@H](F)C5)nc3c2F)N1` [Example 9A, 12-((1R,5S)-3,8-diazabicyclo[3.2.1]octan-3-yl)-3,16-difluoro-14-(((2R,7aS)-2-fluorotetrahydro-1H-pyrazin-7a(5H)-yl)methoxy)-18-hydroxy-5,6,7,8-tetrahydro-4H-naphtho[1′,8′:4,5,6][1]azacyclododecino[2,3-g]quinazolin-9(10H)-one], the IC50 turned out to be 0.687 µM in experiment [1] and 1.96 µM in experiment [2] (AsPC-1 cells). With `C[C@@]1(O)CCCN(c2nc(OCC34CCC(CC3)OC4)nc3c(F)c4c(cc23)NCCCCCc2c(F)ccc3cc(O)cc-4c23)C1` [Example 19], the IC50 in experiment [1] (Homo sapiens, AGS, 3 h) was > 10 µM; in experiment [2] (setting [3]), > 10 µM. For `O=C1CCCc2c(F)ccc3cc(O)cc(c23)-c2c(cc3c(N4CC5CCC(C4)N5)nc(OC[C@@]45CCCN4C[C@H](F)C5)nc3c2F)N1` [Example 1, 10-((1R,5S)-3,8-Diazabicyclo[3.2.1]octan-3-yl)-3,14-difluoro-12-(((2R,7aS)-2-fluorotetrahydro-1H-pyrazin-7a(5H)-yl)methoxy)-16-hydroxy-5,6-dihydro-4H-naphtho[1′,8′:4,5,6]acridin[2,3-g]quinazolin-7(8H)-one], the IC50 in experiment [1] (Homo sapiens, AGS, 3 h) amounted to 2.15 µM; in experiment [2] (setting [3]), 2.45 µM. Taken in the same sequence, the figures for `[2H]C([2H])([2H])N1C(=O)CCCCc2c(F)ccc3cc(O)cc(c23)-c2c1cc1c(N3CCC[C@@](C)(O)C3)nc(OC[C@@]34CCCN3C[C@H](F)C4)nc1c2F` [Example 41, 3,15-Difluoro-13-(((2R,7aS)-2-fluoro-tetrahydro-1H-pyrazin-7a(5H)-yl)methoxy)-17-hydroxy-11-((R)-3-hydroxy-3-methylpiperidin-1-yl)-9-(trideuteromethyl)-4,5,6,7-tetrahydronaphtho[1′,8′:4,5,6][1]azacycloundecino[2,3-g]quinazolin-8(9H)-one] were 0.307 µM and 2.79 µM. Turning to `CC1(O)CCCN(c2nc(OCC34CCC(CC3)CO4)nc3c(F)c4c(cc23)NCCCCCc2c(F)ccc3cc(O)cc-4c23)C1` [Example 18B, (R)-13-(((2-oxabicyclo[2.2.2]octan-1-yl)methoxy)-3,15-difluoro-11-(3-hydroxy-3-methylpiperidin-1-yl)-4,5,6,7,8,9-hexahydro-naphtho[1′,8′:4,5,6][1]azacycloundecino[2,3-g]quinazoline-17-ol], the IC50 in experiment [1] and in experiment [2] (AsPC-1 cells) was > 10 µM in each case.

Turning to `C=C1CN2CCC[C@@]2(COc2nc(N3CCC[C@@](C)(O)C3)c3cc4c(c(F)c3n2)-c2cc(O)cc3ccc(F)c(c23)CCOCCN4)C1` (single isomer, unassigned) [Example 42C], the IC50 in experiment [2] (AsPC-1 cells) was found to be 0.101 µM. Regarding `C[C@@]1(O)CCCN(c2nc(OCC(F)(F)F)nc3c(F)c4c(cc23)NCCCCCc2c(F)ccc3cc(O)cc-4c23)C1` [Example 17A, (R)-3,15-difluoro-11-(3-hydroxy-3-methylpiperidin-1-yl)-13-(2,2,2-trifluoroethoxy)-4,5,6,7,8,9-hexahydro-naphtho[1′,8′:4,5,6111]azacycloundecino[2,3-g]quinazoline-17-ol], the IC50 in experiment [1] (Homo sapiens, AGS, 3 h) was 5.27 µM; in experiment [2] (setting [3]) it was > 10 µM. `C[C@@]1(O)CCCN(c2nc(OCC34CCCN3CCC4)nc3c(F)c4c(cc23)NCCCCCc2c(F)ccc3cc(O)cc-4c23)C1` (single isomer, unassigned) [Example 21B]: the IC50 came to 0.517 µM in experiment [1] and 4.62 µM in experiment [2] (AsPC-1 cells).

For the molecule `C[C@@]1(O)CCCN(c2nc(OCC34CCCN3C3CC3C4)nc3c(F)c4c(cc23)NCCCCCc2c(F)ccc3cc(O)cc-4c23)C1` (stereo partly drawn) [Example 37, 3,15-Difluoro-13-((hexahydrocyclopropano[b]pyrrolizin-5a(3H)-yl)methoxy)-11-((R)-3-hydroxy-3-methylpiperidin-1-yl)-4,5,6,7,8,9-hexahydro-naphtho[1′,8′:4,5,6][1]azacycloundecino[2,3-g]quinazoline-17-ol], the IC50 worked out at 0.546 µM in experiment [1] (Homo sapiens, AGS, 3 h) and 3.51 µM in experiment [2] (setting [3]). Taken in the same sequence, the figures for `O=C1NCCCCCc2c(F)ccc3cc(O)cc(c23)-c2c1cc1c(N3CC4CCC(C3)N4)nc(OC[C@@]34CCCN3C[C@H](F)C4)nc1c2F` [Example 14, 12-((1R,5S)-3,8-diazabicyclo[3.2.1]oct-3-yl)-3,16-difluoro-14-(((2R,7aS)-2-fluorotetrahydro-1H-pyrazin-7a(5H)-yl)methoxy)-18-hydroxy-4,5,6,7,8,9-hexahydro-10H-naphtho[1′,8′:5,6,7][1]azacyclododecano[3,4-g]quinazolin-10-one] were 2.77 µM and 3.84 µM. With `CC1(O)CCCN(c2nc(OCC(F)(F)F)nc3c(F)c4c(cc23)NCCCCCc2c(F)ccc3cc(O)cc-4c23)C1` [Example 17B, (R)-3,15-difluoro-11-(3-hydroxy-3-methylpiperidin-1-yl)-13-(2,2,2-trifluoroethoxy)-4,5,6,7,8,9-hexahydro-naphtho[1′,8′:4,5,6111]azacycloundecino[2,3-g]quinazoline-17-ol], the IC50 in experiment [1] and in experiment [2] (AsPC-1 cells) was > 10 µM throughout.

On to `Oc1cc2c3c(c(F)ccc3c1)CCCCNc1cc3c(N4CC5CCC(C4)N5)nc(OC[C@@]45CCCN4C[C@H](F)C5)nc3c(F)c1-2` [Example 2, 10-((1R,5S)-3,8-Diazabicyclo[3.2.1]octan-3-yl)-3,14-difluoro-12-(((2R,7aS)-2-fluorotetrahydro-1H-pyrazin-7a(5H)-yl)methoxy)-5,6,7,8-tetrahydro-4H-naphtho[1′,8′:4,5,6]acridin[2,3-g]quinazolin-16-ol], for which the IC50 came out at 0.154 µM in experiment [1] (Homo sapiens, AGS, 3 h) and 0.71 µM in experiment [2] (setting [3]).

(Values after patent US20260049089A1, “KRAS INHIBITOR COMPOUND” (SHANGHAI APEIRON THERAPEUTICS COMPANY LIMITED, priority 2022, published 2026).)
